This passage reports EC50 results from US20070219193A1, “ALKYLAMINE-SUBSTITUTED BICYCLIC ARYL COMPOUNDS USEFUL AS MODULATORS OF PPAR” (KALYPSYS, INC, priority 2006, published 2007).

Common to all, as to type: cell-based
One test deals with T1, PPAR alpha (Homo sapiens, UniProt Q07869).
T1 construct: expressed in transfected cells; host or cells: HEK293
T1 sequence (Q07869 1-468): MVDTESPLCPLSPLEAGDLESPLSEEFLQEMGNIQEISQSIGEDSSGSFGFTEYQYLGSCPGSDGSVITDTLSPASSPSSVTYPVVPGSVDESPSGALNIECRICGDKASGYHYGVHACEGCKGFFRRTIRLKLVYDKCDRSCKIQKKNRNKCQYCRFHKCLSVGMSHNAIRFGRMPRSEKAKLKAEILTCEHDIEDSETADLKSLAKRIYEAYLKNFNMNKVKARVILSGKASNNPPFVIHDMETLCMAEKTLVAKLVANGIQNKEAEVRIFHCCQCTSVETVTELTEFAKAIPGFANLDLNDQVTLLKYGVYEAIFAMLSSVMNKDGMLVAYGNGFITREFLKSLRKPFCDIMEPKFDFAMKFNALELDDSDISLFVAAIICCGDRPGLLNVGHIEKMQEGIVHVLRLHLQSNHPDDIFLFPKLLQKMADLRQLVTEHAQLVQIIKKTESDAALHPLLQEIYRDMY
The experiment in a line: Full-length PPAR transcriptional activation assay (PPRE::Luciferase reporter, HEK293 cells), PPAR alpha. The following applies: transfected HEK293 cells, species of receptor not given. The protocol:
(§1) HEK293 cells were seeded the day before transfection into 384-well plates at a cell density of 6,000 cells per well in 40 μl assay medium I (phenol red-free DMEM containing 4% charcoal-dextran stripped FBS, 1% Penicillin-Streptomycin and 1% GlutaMax-1). Then 25 ng of PPRE::Luciferase reporter plasmid, an expression plasmid (25 pg of PPARα, or 40 pg of PPARδ, or 75 pg of PPARγ2), and an appropriate amount of the plasmid pUC19 to bring the total DNA amount to 50 ng was added to 20 μl of phenol-red free DMEM and 150 nL of Fugene 6 and incubated for 30 minutes. The transfection mixtures were then added to the cells and incubated for three hours. 10 μl of test agents in 5% DMSO were then added to the cells and incubated at 37° C. for an additional 18 hours. Luciferase activity was then assayed by adding 25 μl/well of Britelite (Perkin Elmer) according to the manufacturer's protocol and relative light output was measured with an Analyst GT plate reader (Molecular Devices). All experimental points were done in triplicate and the assays were repeated at least 3 times.
(§2) HEK293 cells were seeded the day before transfection in […] dishes at a density of 9×10^6 cells/dish and incubated at 37° C., 10% CO2 for 16-24 hours. Then, […] of PPRE::Luciferase reporter plasmid, an expression plasmid (7.5 ng of PPARα, or 7.5 ng of PPARδ, or 75 ng of PPARγ2), and an appropriate amount of the plasmid pUC19 to bring the total DNA amount to […] were mixed with 54 μl of Fugene 6 in 2 mls of phenol red-free DMEM and incubated for 30 minutes. Transfection mixtures were then incubated with the cells for 18 hours. Cells were then replated into sterile, white TC treated 384-well assay plates at a cell density of 24×10^3 cells/well in 40 μl of assay medium II (phenol-red free DMEM containing 3% charcoal/dextran-stripped FBS, 1% Penicillin-Streptomycin and 1% GlutaMax-1) and incubated at 37° C. for 6 hours. 10 μl of test agents in 5% DMSO were then added to the cells and incubated at 37° C. for an additional 18 hours. Luciferase activity was then assayed by adding 30 μl/well of Britelite (Perkin Elmer) according to the manufacturer's protocol and relative light output was measured with an Analyst GT plate reader (Molecular Devices). All experimental points were done in triplicate and the assays were repeated 3 times.
A general note: Reporter assays use an easily measured gene product as a stand-in for the process of interest.

The target of a further test is T2, PPAR delta (Homo sapiens, UniProt Q03181).
T2 construct: expressed in transfected cells; host or cells: HEK293
T2 sequence (Q03181 1-441): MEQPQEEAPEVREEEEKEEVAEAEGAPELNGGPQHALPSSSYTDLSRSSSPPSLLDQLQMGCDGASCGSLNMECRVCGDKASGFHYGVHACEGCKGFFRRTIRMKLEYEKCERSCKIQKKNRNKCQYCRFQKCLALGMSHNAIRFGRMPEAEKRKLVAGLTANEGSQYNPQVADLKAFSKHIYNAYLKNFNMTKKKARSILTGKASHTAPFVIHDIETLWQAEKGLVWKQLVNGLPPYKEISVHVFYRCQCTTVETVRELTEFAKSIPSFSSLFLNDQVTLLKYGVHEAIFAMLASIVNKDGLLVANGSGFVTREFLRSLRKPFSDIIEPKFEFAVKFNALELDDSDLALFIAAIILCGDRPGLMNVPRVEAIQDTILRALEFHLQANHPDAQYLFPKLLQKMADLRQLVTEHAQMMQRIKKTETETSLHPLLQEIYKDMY
The experiment in a line: Full-length PPAR transcriptional activation assay (PPRE::Luciferase reporter, HEK293 cells), PPAR delta. The note with it: transfected HEK293 cells, species of receptor not given. As to the method:
as §1, §2

Another test addresses T3, PPAR gamma (Homo sapiens, UniProt P37231).
T3 construct: expressed in transfected cells; host or cells: HEK293
T3 sequence (P37231 1-505): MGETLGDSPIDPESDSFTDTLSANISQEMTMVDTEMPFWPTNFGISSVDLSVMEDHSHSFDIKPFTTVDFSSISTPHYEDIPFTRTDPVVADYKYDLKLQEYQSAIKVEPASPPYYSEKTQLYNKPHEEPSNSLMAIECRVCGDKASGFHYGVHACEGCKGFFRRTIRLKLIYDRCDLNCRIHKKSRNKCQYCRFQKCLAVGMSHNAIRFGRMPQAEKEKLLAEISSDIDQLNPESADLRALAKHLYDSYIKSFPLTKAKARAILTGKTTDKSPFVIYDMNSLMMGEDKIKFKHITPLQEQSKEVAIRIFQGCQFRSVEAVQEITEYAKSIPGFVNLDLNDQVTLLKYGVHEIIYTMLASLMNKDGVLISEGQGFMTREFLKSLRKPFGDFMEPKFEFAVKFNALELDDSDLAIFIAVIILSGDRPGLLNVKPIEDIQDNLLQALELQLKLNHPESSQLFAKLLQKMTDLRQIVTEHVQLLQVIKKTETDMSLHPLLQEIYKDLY
The experiment in a line: Full-length PPAR transcriptional activation assay (PPRE::Luciferase reporter, HEK293 cells), PPAR gamma. The note with it: transfected HEK293 cells (PPARγ2 plasmid), species of receptor not given. The protocol: as §1, §2

Structures are written as SMILES.

Broadly, the EC50 is the midpoint of the concentration-response curve. High values mean a need for much substance, low ones an effect from little substance. On to `CCc1cnc(N(CCN2CCc3ccc(CC(=O)O)cc3C2)Cc2ccc(OC(F)(F)F)cc2)nc1` [Example 3, (2-{2-[(5-Ethyl-pyrimidin-2-yl)-(4-trifluoromethoxy-benzyl)-amino]-ethyl}-1,2,3,4-tetrahydro-isoquinolin-7-yl)-acetic acid], for which the EC50 on PPAR alpha is greater than 1000 nM; on PPAR delta it was no more than 1000 nM; at PPAR gamma, no more than 1000 nM.
For the compound `CCc1cnc(N(CCN2CCc3ccc(CC(=O)O)cc3C2)Cc2ccc(C(F)(F)F)cc2C(F)(F)F)nc1` [Example 4, (2-{2-[(2,4-Bis-trifluoromethyl-benzyl)-(5-ethyl-pyrimidin-2-yl)-amino]-ethyl}-1,2,3,4-tetrahydro-isoquinolin-7-yl)-acetic acid], the EC50 at PPAR alpha was greater than 1000 nM; on PPAR delta it was no more than 1000 nM; at PPAR gamma, no more than 1000 nM.
Regarding `CCc1cnc(N(CCCCN2CCc3ccc(CC(=O)O)cc3C2)c2ccc(OC(F)(F)F)cc2)nc1` [Example 5, (2-{4-[(5-Ethyl-pyrimidin-2-yl)-(4-trifluoromethoxy-phenyl)-amino]-butyl}-1,2,3,4-tetrahydro-isoquinolin-7-yl)-acetic acid], the concentration giving a half-maximal response (EC50) on PPAR alpha, at PPAR delta and at PPAR gamma was greater than 1000 nM in each case.
`CCc1cnc(N(CCCN2CCc3ccc(CC(=O)O)cc3C2)c2ccc(OC(F)(F)F)cc2)nc1` [Example 6, (2-{3-[(5-Ethyl-pyrimidin-2-yl)-(4-trifluoromethoxy-phenyl)-amino]-propyl}-1,2,3,4-tetrahydroisoquinolin-7-yl)-acetic acid]: the concentration giving a half-maximal response (EC50) at PPAR alpha, on PPAR delta and on PPAR gamma was greater than 1000 nM each time.
For `CCc1cnc(N(CCCN2CCc3ccc(CC(=O)O)cc3C2)c2ccc(C(F)(F)F)cc2)nc1` [Example 7, (2-[3-[(5-Ethyl-pyrimidin-2-yl)-(4-trifluoromethyl-phenyl)-amino]-propyl]-1,2,3,4-tetrahydroisoquinolin-7-yl)-acetic acid], the EC50 at PPAR alpha, on PPAR delta and at PPAR gamma was greater than 1000 nM throughout.
As to `CCc1cnc(N(CCc2ccc(C(F)(F)F)cc2)CCN2CCc3ccc(CC(=O)O)cc3C2)nc1` [Example 8, [2-(2-{(5-Ethyl-pyrimidin-2-yl)-[2-(4-trifluoromethyl-phenyl)-ethyl]-amino}-ethyl)-1,2,3,4-tetrahydro-isoquinolin-7-yl]-acetic acid], the concentration giving a half-maximal response (EC50) at PPAR alpha was greater than 1000 nM; at PPAR delta, no more than 1000 nM; at PPAR gamma, greater than 1000 nM.
On to `CCc1cnc(N(CCCN2CCc3ccc(CC(=O)O)cc3C2)CCc2ccc(C(F)(F)F)cc2)nc1` [Example 9, [2-(3-{(5-Ethyl-pyrimidin-2-yl)-[2-(4-trifluoromethyl-phenyl)-ethyl]-amino}-propyl)-1,2,3,4-tetrahydro-isoquinolin-7-yl]-acetic acid], for which the EC50 is greater than 1000 nM on PPAR alpha, no more than 1000 nM on PPAR delta and greater than 1000 nM at PPAR gamma.
In the case of `CCc1cnc(N(CCCC2CCc3ccc(CC(=O)O)cc3O2)Cc2ccc(C(F)(F)F)cc2)nc1` (stereo not drawn) [Example 10, (2-{3-[(5-Ethyl-pyrimidin-2-yl)-(4-trifluoromethyl-benzyl)-amino]-propyl}-chroman-7-yl)-acetic acid], the values for the EC50 on PPAR alpha, at PPAR delta and at PPAR gamma were greater than 1000 nM, no more than 1000 nM and no more than 1000 nM, respectively.
As to `CCc1cnc(N(CCCC2CCc3c(CC(=O)O)cccc3O2)Cc2ccc(C(F)(F)F)cc2)nc1` (stereo not drawn) [Example 11, (2-{3-[(5-Ethyl-pyrimidin-2-yl)-(4-trifluoromethyl-benzyl)-amino]-propyl}-chroman-5-yl)-acetic acid], the results for the half-maximal effective concentration (EC50) on PPAR alpha, on PPAR delta and at PPAR gamma were greater than 1000 nM, no more than 1000 nM and no more than 1000 nM, respectively.
With `CCc1cnc(N(CCCC2CCc3ccc(CC(=O)O)cc3O2)Cc2ccc(OC(F)(F)F)cc2)nc1` (stereo not drawn) [Example 12, 2-(2-(3-((5-Ethylpyrimidin-2-yl)(4-(trifluoromethoxy)benzyl)amino)propyl)chroman-7-yl)acetic acid], the EC50 on PPAR alpha was greater than 1000 nM; at PPAR delta it was no more than 1000 nM; on PPAR gamma, no more than 1000 nM.
On to `CCc1cnc(N(CCCC2CCc3c(CC(=O)O)cccc3O2)Cc2ccc(OC(F)(F)F)cc2)nc1` (stereo not drawn) [Example 13, 2-(2-(3-((5-Ethylpyrimidin-2-yl)(4-(trifluoromethoxy)benzyl)amino)propyl)chroman-5-yl)acetic acid], for which the EC50 at PPAR alpha is greater than 1000 nM; at PPAR delta it was no more than 1000 nM; at PPAR gamma it was no more than 1000 nM.
`CCc1cnc(N(CCCC2CCc3ccc(CC(=O)O)cc3O2)CCc2ccc(OC(F)(F)F)cc2)nc1` (stereo not drawn) [Example 14, 2-(2-(3-((5-Ethylpyrimidin-2-yl)(4-(trifluoromethoxy)phenethyl)amino)propyl)chroman-7-yl)acetic acid]: the EC50 is greater than 1000 nM at PPAR alpha, no more than 1000 nM on PPAR delta and no more than 1000 nM at PPAR gamma.
Consider `CCc1cnc(N(CCCC2CCc3c(CC(=O)O)cccc3O2)CCc2ccc(OC(F)(F)F)cc2)nc1` (stereo not drawn) [Example 15, 2-(2-(3-((5-Ethylpyrimidin-2-yl)(4-(trifluoromethoxy)phenethyl)amino)propyl)chroman-5-yl)acetic acid], for which the EC50 is greater than 1000 nM at PPAR alpha, no more than 1000 nM on PPAR delta and no more than 1000 nM on PPAR gamma.
For the compound `CCc1cnc(N(CCC2CCc3ccc(CC(=O)O)cc3O2)Cc2ccc(C(F)(F)F)cc2)nc1` (stereo not drawn) [Example 16, 2-(2-(2-((5-ethylpyrimidin-2-yl)(4-(trifluoromethyl)benzyl)amino)ethyl)chroman-7-yl)acetic acid], the EC50 at PPAR alpha, on PPAR delta and on PPAR gamma was no more than 1000 nM throughout.
On to `CCc1cnc(N(CCC2CCc3c(CC(=O)O)cccc3O2)Cc2ccc(C(F)(F)F)cc2)nc1` (stereo not drawn) [Example 17, 2-(2-(2-((5-ethylpyrimidin-2-yl)(4-(trifluoromethyl)benzyl)amino)ethyl)chroman-5-yl)acetic acid], for which the half-maximal effective concentration (EC50) at PPAR alpha, on PPAR delta and at PPAR gamma was no more than 1000 nM each time.
